We go through 6 compounds from ChEMBL document CHEMBL5233204, “Expanding the repertoire of methanocarba nucleosides from purinergic signaling to diverse targets” (RSC Med Chem, 2021).

pEC50, pIC50: −log10 of the molar value.

The target in data set [1] is T1, Equilibrative nucleoside transporter 1 (Homo sapiens, UniProt Q99808).
T1 sequence (Q99808 whole entry): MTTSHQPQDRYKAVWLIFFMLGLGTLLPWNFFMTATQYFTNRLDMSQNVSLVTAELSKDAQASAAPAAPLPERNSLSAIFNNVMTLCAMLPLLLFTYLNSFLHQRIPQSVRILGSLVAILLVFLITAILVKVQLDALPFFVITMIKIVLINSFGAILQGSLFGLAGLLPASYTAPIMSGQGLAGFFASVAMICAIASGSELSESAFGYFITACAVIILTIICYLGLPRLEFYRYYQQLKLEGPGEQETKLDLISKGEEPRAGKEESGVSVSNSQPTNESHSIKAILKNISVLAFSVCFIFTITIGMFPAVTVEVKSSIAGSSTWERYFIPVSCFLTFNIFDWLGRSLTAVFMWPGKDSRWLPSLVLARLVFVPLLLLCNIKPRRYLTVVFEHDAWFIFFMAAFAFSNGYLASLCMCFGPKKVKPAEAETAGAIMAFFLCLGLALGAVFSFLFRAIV
The data set can be described thus: Inhibition of ENT1 (unknown origin).

Data set [2] concerns Human alphaherpesvirus 1. Put plainly: Antiviral activity against HSV-1 by plaque reduction neutralization test. The data set is classed as functional, organism-based. Background: Plaques are areas of infected cells; plaque reduction assays count them against a control.
Data set [3] has as its system Human alphaherpesvirus 2. The data set can be described thus: Antiviral activity against HSV-2 by plaque reduction neutralization test. The data set is classed as functional, organism-based.
Data set [4] addresses P2Y purinoceptor 6 (Mus musculus, UniProt Q9ERK9). Put plainly: Agonist activity at P2Y6R in mouse adipose tissue. The data set is classed as tissue-based.
Data set [5] has as its target T2, Sodium/nucleoside cotransporter 1 (Homo sapiens, UniProt O00337).
T2 sequence (O00337 whole entry): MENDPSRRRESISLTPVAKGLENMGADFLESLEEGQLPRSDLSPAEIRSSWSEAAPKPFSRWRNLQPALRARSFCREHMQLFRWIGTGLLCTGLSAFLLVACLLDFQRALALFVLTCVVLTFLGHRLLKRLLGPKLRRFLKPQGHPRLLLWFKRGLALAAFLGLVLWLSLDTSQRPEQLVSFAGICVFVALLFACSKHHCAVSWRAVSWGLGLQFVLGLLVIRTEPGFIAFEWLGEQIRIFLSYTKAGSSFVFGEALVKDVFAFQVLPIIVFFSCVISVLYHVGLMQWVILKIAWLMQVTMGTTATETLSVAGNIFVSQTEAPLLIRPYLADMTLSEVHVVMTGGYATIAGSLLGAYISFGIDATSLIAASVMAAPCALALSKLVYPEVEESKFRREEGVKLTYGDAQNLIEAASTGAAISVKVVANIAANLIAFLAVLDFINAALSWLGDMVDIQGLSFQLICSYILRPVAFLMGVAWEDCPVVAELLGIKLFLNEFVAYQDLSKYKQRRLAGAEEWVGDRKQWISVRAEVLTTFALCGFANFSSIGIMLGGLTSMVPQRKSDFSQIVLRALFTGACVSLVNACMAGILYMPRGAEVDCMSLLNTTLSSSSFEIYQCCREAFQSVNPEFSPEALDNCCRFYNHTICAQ
The data set can be described thus: Inhibition of CNT1 (unknown origin).

Data set [6] deals with T3, Sodium/nucleoside cotransporter 2 (Homo sapiens, UniProt O43868).
T3 sequence (O43868 whole entry): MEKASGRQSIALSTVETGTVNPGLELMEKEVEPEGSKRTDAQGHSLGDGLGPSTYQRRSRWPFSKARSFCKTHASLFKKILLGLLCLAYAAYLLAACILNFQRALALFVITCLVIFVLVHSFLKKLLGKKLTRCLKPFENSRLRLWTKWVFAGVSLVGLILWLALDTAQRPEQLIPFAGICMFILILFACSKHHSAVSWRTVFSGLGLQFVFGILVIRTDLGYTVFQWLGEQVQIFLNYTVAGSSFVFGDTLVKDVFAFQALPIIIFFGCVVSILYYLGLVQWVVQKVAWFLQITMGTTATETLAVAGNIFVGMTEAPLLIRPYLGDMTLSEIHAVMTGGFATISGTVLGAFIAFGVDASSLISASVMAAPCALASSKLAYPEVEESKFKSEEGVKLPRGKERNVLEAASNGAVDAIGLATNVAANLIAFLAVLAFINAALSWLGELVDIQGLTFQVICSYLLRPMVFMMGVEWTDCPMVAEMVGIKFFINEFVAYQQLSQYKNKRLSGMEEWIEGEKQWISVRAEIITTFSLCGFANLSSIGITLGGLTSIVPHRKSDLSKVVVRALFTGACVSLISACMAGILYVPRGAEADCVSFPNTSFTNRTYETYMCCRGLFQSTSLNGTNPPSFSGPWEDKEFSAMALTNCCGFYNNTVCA
Put plainly: Inhibition of CNT2 (unknown origin).

Data set [7] concerns the target T4, P-gp (ABCB1) (Homo sapiens, UniProt P08183). The data set can be described thus: Activation of P-gp (unknown origin) ATPase activity at 10 uM relative to control. The settings on record: read-out: Activity.
In data set [8] the target is T4, P-gp (ABCB1). The data set can be described thus: Inhibition of P-gp (unknown origin) ATPase activity at 10 uM relative to control.

T4 sequence (P08183 whole entry): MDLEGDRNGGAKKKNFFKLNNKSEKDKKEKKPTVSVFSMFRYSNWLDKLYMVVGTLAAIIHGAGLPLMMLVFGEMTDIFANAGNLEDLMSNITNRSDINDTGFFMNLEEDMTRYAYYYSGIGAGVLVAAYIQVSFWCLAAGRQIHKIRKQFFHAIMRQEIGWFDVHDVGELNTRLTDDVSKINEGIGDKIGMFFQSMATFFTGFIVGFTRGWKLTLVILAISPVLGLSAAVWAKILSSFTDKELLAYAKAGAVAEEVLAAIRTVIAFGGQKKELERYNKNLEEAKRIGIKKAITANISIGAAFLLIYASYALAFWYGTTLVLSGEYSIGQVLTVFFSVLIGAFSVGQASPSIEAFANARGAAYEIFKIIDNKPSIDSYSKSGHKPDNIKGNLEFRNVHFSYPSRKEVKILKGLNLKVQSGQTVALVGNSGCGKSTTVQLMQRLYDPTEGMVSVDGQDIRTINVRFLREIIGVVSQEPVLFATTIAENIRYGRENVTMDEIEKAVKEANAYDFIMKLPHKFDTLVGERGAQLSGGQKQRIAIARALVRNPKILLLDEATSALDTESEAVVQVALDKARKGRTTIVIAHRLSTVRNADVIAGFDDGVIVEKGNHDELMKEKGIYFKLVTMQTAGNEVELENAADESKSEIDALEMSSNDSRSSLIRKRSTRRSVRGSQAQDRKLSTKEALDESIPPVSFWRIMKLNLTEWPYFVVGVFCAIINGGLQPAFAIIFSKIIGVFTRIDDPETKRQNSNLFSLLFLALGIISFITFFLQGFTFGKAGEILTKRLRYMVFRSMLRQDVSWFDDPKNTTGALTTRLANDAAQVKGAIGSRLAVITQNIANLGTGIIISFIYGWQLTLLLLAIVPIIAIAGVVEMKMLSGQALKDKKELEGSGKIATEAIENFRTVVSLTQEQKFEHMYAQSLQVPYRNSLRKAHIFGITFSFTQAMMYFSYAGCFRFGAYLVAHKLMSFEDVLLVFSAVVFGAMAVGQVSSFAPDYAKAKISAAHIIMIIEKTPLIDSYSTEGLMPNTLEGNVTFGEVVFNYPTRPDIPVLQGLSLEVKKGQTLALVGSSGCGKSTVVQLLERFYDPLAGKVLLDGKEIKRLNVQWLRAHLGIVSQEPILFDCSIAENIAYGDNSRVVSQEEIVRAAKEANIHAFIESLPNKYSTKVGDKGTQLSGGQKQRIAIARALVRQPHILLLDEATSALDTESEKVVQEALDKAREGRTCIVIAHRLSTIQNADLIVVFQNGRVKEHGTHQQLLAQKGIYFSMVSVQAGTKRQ
Chain of P2Y purinoceptor 6 (Q9ERK9 whole entry): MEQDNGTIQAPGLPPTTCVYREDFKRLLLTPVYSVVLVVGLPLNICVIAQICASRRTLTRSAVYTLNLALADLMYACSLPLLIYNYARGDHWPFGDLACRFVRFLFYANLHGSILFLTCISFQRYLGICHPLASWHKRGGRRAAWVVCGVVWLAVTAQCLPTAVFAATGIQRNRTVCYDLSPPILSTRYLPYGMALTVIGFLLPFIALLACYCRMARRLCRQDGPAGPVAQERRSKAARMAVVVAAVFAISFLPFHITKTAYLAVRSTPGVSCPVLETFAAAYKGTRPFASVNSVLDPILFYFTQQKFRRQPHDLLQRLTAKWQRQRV

For orientation: pIC50 means the negative decadic logarithm of the IC50, by convention in mol/L. Read a high pIC50 as a small IC50. In turn, `O=[N+]([O-])c1ccc(CSc2ncnc3c2ncn3[C@H]2[C@H](O)[C@H](O)[C@@]3(CO)C[C@H]23)cc1` gave a pIC50 in data set [1] of 7.52.

Consider `Cc1cn([C@H]2C[C@H](O)[C@]3(CO)C[C@H]23)c(=O)[nH]c1=O` [(NORTH)-METHANOCARBATHYMIDINE], for which the results for the pIC50 in data set [2] and in data set [3] were 7.70 and 6.60, respectively. Usually pEC50 stands for the EC50 on a negative log10 scale, so that one unit is a factor of ten. Lower therefore signals a large EC50. For the compound `CO/N=c1\ccn([C@]23C[C@H]2[C@@H](COP(=O)(O)OP(=O)(O)O)[C@@H](O)[C@H]3O)c(=O)[nH]1`, the negative-log EC50 (pEC50) in data set [4] is 7.00.

As for `O=[N+]([O-])c1ccc(CSc2ncnc3c2ncn3[C@@H]2O[C@H](CO)[C@@H](O)[C@H]2O)cc1` [NITROBENZYLMERCAPTOPURINE RIBONUCLEOSIDE], the pIC50 in data set [5] and in data set [6] was less than 5.00 in each case. As to `CNC(=O)[C@]12C[C@@H]1[C@@H](n1cnc3c(NCc4cccc(Cl)c4)nc(C#Cc4ccccc4)nc31)[C@H](O)[C@@H]2O`, the activity at 10 µM in data set [7] turned out to be 31%. Usually inhibition stands for the drop in the measured response relative to a control, in per cent. In data set [8], `CNC(=O)[C@]12C[C@@H]1[C@@H](n1cnc3c(N[C@@H]4C[C@H]4c4ccc(F)c(F)c4)nc(C#Cc4ccccc4)nc31)[C@H](O)[C@@H]2O` registered an inhibition at 10 µM of 53%.
